Test results: US20250332178A1, “METHODS OF TREATING MYCOBACTERIAL INFECTIONS USING TETRACYCLINE COMPOUNDS” (priority 2018, published 2025)
Values after ≈ are worked out from the molar mass of the structure shown. Where two headings read alike, the source gives them in different places.

Legend:
[1] = test system: Mycobacterium abscessus; assay: MIC by broth microdilution in CAMHB, clinical isolates; format: cell-based; settings: Mycobacteroides abscessus; for MIC: read-out: MIC
Protocol: (§1) A total of 24 clinical isolates of Mycobacterium abscessus, 22 clinical isolates of Mycobacterium chelonae and 20 clinical isolates of Mycobacterium fortuitum were tested in the study. The study also used the antibiotics tigecycline, doxycycline and amikacin for comparison purposes. […] Amikacin was dissolved in DMSO prior to freezing at −20° C. For susceptibility testing, stock solutions of antibiotic compounds were serially diluted in 50 μL of cation adjusted Mueller-Hinton broth (CAMHB) in polystryrene 96-well round-bottom microtiter plates. To each well, 50 μL of the appropriate mycobacterial cell suspension was added to yield a final concentration of about 1×10^5 CFU/mL. The inoculum used for each isolate was measured by titration in saline with Tween 80 and plating on MH agar. The Mycobacterium abscessus and Mycobacterium fortuitum titer plates were incubated at 37° C. in ambient air for 3-4 days and 5-7 days, respectively. The Mycobacterium chelonae titer plates were incubated at 30° C. in ambient air for 3-5 days. Each isolate was tested at least in duplicate. The MIC was defined as the lowest concentration of antimicrobial agent yielding no visible turbidity.

[2] = test system: Mycobacterium chelonae; assay: as above; format: cell-based; settings: 22 clinical isolates; read-out: MIC50
Protocol: as §1

[3] = test system: Mycobacterium fortuitum; assay: as above; format: cell-based; settings: Mycolicibacterium fortuitum; for MIC: read-out: MIC
Protocol: as §1

[4] = test system: rapid-growing mycobacteria (RGM) isolates; assay: MIC (CLSI broth dilution), all RGM isolates; format: cell-based, nontuberculous mycobacteria; settings: RGM clinical isolates, all species

`CN(C)c1cc(CNCC(C)(C)C)c(O)c2c1C[C@H]1C[C@H]3C(N(C)C)C(O)=C(C(N)=O)C(=O)[C@@]3(O)C(O)=C1C2=O` (stereo partly drawn) [Omadacycline, (4aS,5aR,12aS)-4,7-bis(dimethylamino)-3,10,12,12a-tetrahydroxy-9-((neopentylamino)methyl)-1,11-dioxo-1,4,4a,5,5a,6,11,12a-octahydrotetracene-2-carboxamide] showed an MIC ([1]; isolate No. 1, BB2) of 1 µg/mL (≈ 1.8 µM), an MIC ([1]; isolate No. 2, BB4) of 4 µg/mL (≈ 7.19 µM) and an MIC ([1]; isolate No. 3, 5922) of 0.125 µg/mL (≈ 0.225 µM). It also gave an MIC ([1]; isolate No. 4, BB3) of 0.06 µg/mL (≈ 0.108 µM), an MIC ([1]; isolate No. 5, BB6) of 0.06 µg/mL (≈ 0.108 µM) and an MIC ([1]; isolate No. 6, 5908) of 1 µg/mL (≈ 1.8 µM). It also gave an MIC ([1]; isolate No. 7, BB7) of 2 µg/mL (≈ 3.59 µM), an MIC ([1]; isolate No. 8, 6031) of 0.25 µg/mL (≈ 0.449 µM) and an MIC ([1]; isolate No. 9, 5785) of 0.25 µg/mL (≈ 0.449 µM). It also gave an MIC ([1]; isolate No. 10, BB8) of 1 µg/mL (≈ 1.8 µM), an MIC ([1]; isolate No. 11, 6111) of 1 µg/mL (≈ 1.8 µM) and an MIC ([1]; isolate No. 12, 6005) of 1 µg/mL (≈ 1.8 µM). The MIC ([1]; isolate No. 13, 5605) was 1 µg/mL (≈ 1.8 µM), the MIC ([1]; isolate No. 14, 5931) was 1 µg/mL (≈ 1.8 µM) and the MIC ([1]; isolate No. 15, BB1) was 2 µg/mL (≈ 3.59 µM). The MIC ([1]; isolate No. 16, BB5) was 2 µg/mL (≈ 3.59 µM), the MIC ([1]; isolate No. 17, 5812) was 2 µg/mL (≈ 3.59 µM) and the MIC ([1]; isolate No. 18, 5901) was 1 µg/mL (≈ 1.8 µM). For the same molecule, the MIC ([1]; isolate No. 19, 5960) was 8 µg/mL (≈ 14.4 µM), the MIC ([1]; isolate No. 20, 6142) was 1 µg/mL (≈ 1.8 µM) and the MIC ([1]; isolate No. 21, 5922) was 0.5 µg/mL (≈ 0.898 µM). The MIC ([1]; isolate No. 22, LT 949) was 1 µg/mL (≈ 1.8 µM), the MIC ([1]; isolate No. 23, 6025) was 1 µg/mL (≈ 1.8 µM) and the MIC ([1]; isolate No. 24, 6153) was 2 µg/mL (≈ 3.59 µM). For the same molecule, the MIC50 ([1]; 24 clinical isolates (tigecycline: subset N=14), read-out: MIC50) was 1 µg/mL (≈ 1.8 µM), the MIC90 ([1]; 24 clinical isolates (tigecycline: subset N=14), read-out: MIC90) was 2 µg/mL (≈ 3.59 µM) and the MIC50 [2] was 0.125 µg/mL (≈ 0.225 µM). It also gave an MIC ([3]; isolate No. 1, 3349) of 0.25 µg/mL (≈ 0.449 µM), an MIC ([3]; isolate No. 2, 3499) of 0.03 µg/mL (≈ 0.0539 µM) and an MIC ([3]; isolate No. 3, 2797) of 0.125 µg/mL (≈ 0.225 µM). It also gave an MIC ([3]; isolate No. 4, 32) of 0.25 µg/mL (≈ 0.449 µM), an MIC ([3]; isolate No. 5, 33) of 0.125 µg/mL (≈ 0.225 µM) and an MIC ([3]; isolate No. 6, 3489) of 0.125 µg/mL (≈ 0.225 µM). It also gave an MIC ([3]; isolate No. 7, 3491) of 0.125 µg/mL (≈ 0.225 µM), an MIC ([3]; isolate No. 8, 54) of 0.06 µg/mL (≈ 0.108 µM) and an MIC ([3]; isolate No. 9, 38) of 0.125 µg/mL (≈ 0.225 µM). It also gave an MIC ([3]; isolate No. 10, 36) of 0.125 µg/mL (≈ 0.225 µM), an MIC ([3]; isolate No. 11, 3480) of 0.25 µg/mL (≈ 0.449 µM) and an MIC ([3]; isolate No. 12, 3126) of 0.125 µg/mL (≈ 0.225 µM). The MIC ([3]; isolate No. 13, 3579) was 0.25 µg/mL (≈ 0.449 µM), the MIC ([3]; isolate No. 14, 7484) was 0.5 µg/mL (≈ 0.898 µM) and the MIC ([3]; isolate No. 15, 3488) was 0.5 µg/mL (≈ 0.898 µM). It also gave an MIC ([3]; isolate No. 16, 3276) of 0.25 µg/mL (≈ 0.449 µM), an MIC ([3]; isolate No. 17, 3442) of 1 µg/mL (≈ 1.8 µM) and an MIC ([3]; isolate No. 18, 3316) of 0.125 µg/mL (≈ 0.225 µM). The MIC ([3]; isolate No. 19, 3490) was 0.25 µg/mL (≈ 0.449 µM), the MIC ([3]; isolate No. 20, 2491) was 1 µg/mL (≈ 1.8 µM) and the MIC50 ([3]; 20 clinical isolates, read-out: MIC50) was 0.125 µg/mL (≈ 0.225 µM). It also gave an MIC90 ([3]; 20 clinical isolates, read-out: MIC90) of 0.5 µg/mL (≈ 0.898 µM), an MIC50 ([4]; read-out: MIC50) of 0.25 µg/mL (≈ 0.449 µM) and an MIC90 ([4]; read-out: MIC90) of 0.5 µg/mL (≈ 0.898 µM).
